Legend:
Chlorella sp. ATCC 7516 = assay: Algal efficacy testing of dry paint films (modified ASTM 5589, 6-well plates); type: cell-based; details: 3 weeks; for % inhibition: at the Total conc, versus blank sample; for Total conc (concentration chosen as minimum inhibitory concentration, pass level ≧75% inhibition): total active ingredient in acrylic/silicone paint, dry film on filter paper
Procedure: (§1) Slurries containing 33% antimicrobial active ingredient (chlorotoluron) were post added to a white, acrylic/silicone based outdoor paint free of biocides to give a total active ingredient concentration of 10000 and 1000 ppm respectively. KATHON™ 893T (100% OIT) was post added to a white, acrylic/silicone based outdoor paint free of biocides to give a total active ingredient concentration of 10000 and 1000 ppm respectively. These paints were then diluted with an antimicrobial free acrylic/silicone based paint and mixed to prepare targeted concentrations of antimicrobial compounds for the testing. The total biocides concentrations tested were 125, 250, 500, 1000, 2000 and 5000 ppm. After biocides addition or dilution, the paints were mixed 90 seconds with the horse power shaker (AXEL 75M3372/Agitateur SO-10MI) until uniformity was achieved. Paints containing different antimicrobial compounds at the same levels were mixed together in order to obtain the desired ratio of antimicrobial compounds. After one day, the paints were applied to Schleicher & Schuell filter paper at 280 μm wet film thickness and dried for 3 days at room temperature avoiding direct exposure to sunlight. Square discs (1.6 cm×1.6 cm) were cut out from each panel and were used as the substrate for algal efficacy tests. This sample size allowed for an agar border when the sample disc was placed into the well of the test plate.
(§2) Algal efficacy was tested according to modified ASTM 5589 which is a standard accelerated test method for determining resistance of various coatings (including paints) to algal defacement. To accommodate for high-throughput screening, this method was scaled down from petri dishes to 6-well plates. Bold Modified Basal Freshwater Nutrient Solution was used as growth medium. A single coated filter paper coupon was placed with a pair of sterile forceps at the center of the agar plug (on top) with the painted surface facing upwards. Algal inoculums were prepared by mixing equal concentrations (1×10^6 cfu/ml) and equal volumes of exponentially growing algae cultures.
(§3) Each well that contains a tested coupon was inoculated with 1750 μl of algal suspensions (1×10^6 cfu/ml) making sure that the whole surface (paint film as well as the agar surrounding it) was evenly covered. The plates were incubated at room temp (21° C.-25° C.) with cyclic exposure to light and dark phases, for a period of three weeks. The total area inhibited was evaluated at the end of each week according to percent area covered in 5% increments
(§4) At the end of the three week incubation period, the samples were scored for percent inhibition regarding color intensity compared to the blank sample.
(§5) The Synergy Index calculation was performed as follows.
(§6) The SI is calculated based on F. C. Kull et.
(§7) SI value of <1 in the formula indicates a synergism of the blended biocides exists.
(§8) The minimal targeted inhibition was set at 75%, meaning a coupon with at least 75% algal growth inhibition was considered as a pass.

[1] = tested on: Stichococcus bacillaris SAG 379-1a / CCAP 379/1a; assay: as above; type: cell-based; details: 3 weeks; for % inhibition: at the Total conc, versus blank sample; for Total conc (concentration chosen as minimum inhibitory concentration, pass level ≧75% inhibition): total active ingredient in acrylic/silicone paint, dry film on filter paper
Procedure: as §1, §2, §3, §4, §5, §6, §7, §8

SMILES | % inhibition (Chlorella sp. ATCC 7516) [%] | Total conc (concentration chosen as minimum inhibitory concentration, pass level ≧75% inhibition) (Chlorella sp. ATCC 7516) [ppm] | % inhibition [1] [%] | Total conc (concentration chosen as minimum inhibitory concentration, pass level ≧75% inhibition) [1] [ppm]
CCCCCCCCn1sccc1=O [OIT, 2-n-octyl-4-isothiazolin-3-one] | 50 | 2000 | 60 | 2000
Cc1ccc(NC(=O)N(C)C)cc1Cl [Chlorotoluron, N′-(3-chloro-4-methylphenyl)-N,N-dimethylurea] | 100 | 1000 | 90 | 500

— patent US9326518B2, “Synergistic combination of a chlorotoluron compound and OIT for dry film protection” (Dow Global Technologies LLC, priority 2013, dated 2016)
